Assay results taken from ChEMBL document CHEMBL5291721, “A preclinical secondary pharmacology resource illuminates target-adverse drug reaction associations of marketed drugs” (Nat Commun, 2023).

Legend:
[1] = target: Voltage-dependent L-type calcium channel subunit alpha-1C (Homo sapiens, UniProt Q13936); assay type: functional, cell-based
[2] = target: Gamma-aminobutyric acid receptor subunit alpha-1 (Rattus norvegicus, UniProt P62813)
[3] = target: cGMP-inhibited 3',5'-cyclic phosphodiesterase 3A (Homo sapiens, UniProt Q14432); assay type: functional
Sequence of cGMP-inhibited 3',5'-cyclic phosphodiesterase 3A (Q14432 whole entry): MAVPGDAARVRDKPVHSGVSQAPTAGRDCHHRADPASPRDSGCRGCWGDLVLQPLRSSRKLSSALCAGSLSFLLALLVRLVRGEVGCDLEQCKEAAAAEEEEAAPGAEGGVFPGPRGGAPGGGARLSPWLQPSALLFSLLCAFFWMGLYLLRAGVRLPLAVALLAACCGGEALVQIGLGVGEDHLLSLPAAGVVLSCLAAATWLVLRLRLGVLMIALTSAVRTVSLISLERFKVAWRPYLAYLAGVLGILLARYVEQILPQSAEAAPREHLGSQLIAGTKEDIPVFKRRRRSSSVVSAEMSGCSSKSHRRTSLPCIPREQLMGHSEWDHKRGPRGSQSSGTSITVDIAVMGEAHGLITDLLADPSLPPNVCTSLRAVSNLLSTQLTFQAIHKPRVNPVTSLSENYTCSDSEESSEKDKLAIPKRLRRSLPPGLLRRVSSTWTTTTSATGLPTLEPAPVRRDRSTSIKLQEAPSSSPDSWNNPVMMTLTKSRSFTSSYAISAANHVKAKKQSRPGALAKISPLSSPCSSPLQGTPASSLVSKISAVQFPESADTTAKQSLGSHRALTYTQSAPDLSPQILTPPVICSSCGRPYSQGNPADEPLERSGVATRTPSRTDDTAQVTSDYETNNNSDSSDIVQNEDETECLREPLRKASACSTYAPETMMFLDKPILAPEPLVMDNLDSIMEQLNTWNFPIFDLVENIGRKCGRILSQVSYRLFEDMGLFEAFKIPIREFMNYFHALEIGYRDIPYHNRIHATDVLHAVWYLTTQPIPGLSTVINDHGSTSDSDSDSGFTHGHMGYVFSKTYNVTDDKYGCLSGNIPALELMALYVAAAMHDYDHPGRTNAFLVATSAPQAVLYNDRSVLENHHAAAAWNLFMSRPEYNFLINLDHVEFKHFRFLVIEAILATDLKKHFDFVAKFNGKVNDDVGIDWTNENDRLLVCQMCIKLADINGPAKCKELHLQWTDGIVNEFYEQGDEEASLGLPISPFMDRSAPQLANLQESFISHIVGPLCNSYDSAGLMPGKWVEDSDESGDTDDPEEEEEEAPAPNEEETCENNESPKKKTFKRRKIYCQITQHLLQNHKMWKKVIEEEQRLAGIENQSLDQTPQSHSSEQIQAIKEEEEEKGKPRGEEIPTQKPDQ

Progesterone receptor = target: T1, Progesterone receptor (Homo sapiens, UniProt P06401)
T1 sequence (P06401 whole entry): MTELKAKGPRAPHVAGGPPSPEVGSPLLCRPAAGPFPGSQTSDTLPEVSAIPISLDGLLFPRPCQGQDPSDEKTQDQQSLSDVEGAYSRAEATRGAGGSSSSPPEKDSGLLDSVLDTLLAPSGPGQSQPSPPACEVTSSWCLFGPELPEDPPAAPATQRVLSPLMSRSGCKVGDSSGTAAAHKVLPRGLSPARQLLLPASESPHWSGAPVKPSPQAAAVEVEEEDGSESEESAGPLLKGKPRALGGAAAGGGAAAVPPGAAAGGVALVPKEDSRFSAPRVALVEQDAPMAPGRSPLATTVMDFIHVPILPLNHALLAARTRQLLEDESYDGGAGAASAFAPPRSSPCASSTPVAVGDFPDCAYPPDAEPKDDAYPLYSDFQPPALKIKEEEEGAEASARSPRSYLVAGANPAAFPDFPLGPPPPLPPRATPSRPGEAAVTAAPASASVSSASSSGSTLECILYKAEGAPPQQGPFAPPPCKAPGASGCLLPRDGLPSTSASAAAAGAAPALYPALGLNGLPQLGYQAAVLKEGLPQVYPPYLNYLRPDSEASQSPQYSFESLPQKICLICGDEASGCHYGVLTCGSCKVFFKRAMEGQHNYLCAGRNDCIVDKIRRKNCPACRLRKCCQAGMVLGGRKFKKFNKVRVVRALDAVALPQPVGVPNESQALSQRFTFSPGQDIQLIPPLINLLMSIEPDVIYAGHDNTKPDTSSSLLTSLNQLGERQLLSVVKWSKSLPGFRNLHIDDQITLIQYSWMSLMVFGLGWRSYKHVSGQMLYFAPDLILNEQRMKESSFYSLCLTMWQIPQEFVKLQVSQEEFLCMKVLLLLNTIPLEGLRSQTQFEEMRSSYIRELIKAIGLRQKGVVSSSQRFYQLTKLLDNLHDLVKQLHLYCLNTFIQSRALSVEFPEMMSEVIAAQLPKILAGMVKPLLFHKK

Adenosine receptor A1 = target: T2, Adenosine receptor A1 (Homo sapiens, UniProt P30542)
T2 sequence (P30542 whole entry): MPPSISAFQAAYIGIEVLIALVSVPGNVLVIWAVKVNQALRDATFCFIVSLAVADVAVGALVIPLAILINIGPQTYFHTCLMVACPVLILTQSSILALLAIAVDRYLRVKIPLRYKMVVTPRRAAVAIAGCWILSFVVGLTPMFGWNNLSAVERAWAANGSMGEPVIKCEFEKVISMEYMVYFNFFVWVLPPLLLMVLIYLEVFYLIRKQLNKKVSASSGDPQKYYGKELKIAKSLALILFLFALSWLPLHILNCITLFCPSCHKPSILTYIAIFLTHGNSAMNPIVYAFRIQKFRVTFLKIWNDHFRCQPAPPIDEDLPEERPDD

D(1A) dopamine receptor = D(1A) dopamine receptor (Homo sapiens, UniProt P21728); assay type: functional, cell-based
[4] = target: T3, Muscarinic acetylcholine receptor M1 (Homo sapiens, UniProt P11229); assay type: functional, cell-based
T3 sequence (P11229 whole entry): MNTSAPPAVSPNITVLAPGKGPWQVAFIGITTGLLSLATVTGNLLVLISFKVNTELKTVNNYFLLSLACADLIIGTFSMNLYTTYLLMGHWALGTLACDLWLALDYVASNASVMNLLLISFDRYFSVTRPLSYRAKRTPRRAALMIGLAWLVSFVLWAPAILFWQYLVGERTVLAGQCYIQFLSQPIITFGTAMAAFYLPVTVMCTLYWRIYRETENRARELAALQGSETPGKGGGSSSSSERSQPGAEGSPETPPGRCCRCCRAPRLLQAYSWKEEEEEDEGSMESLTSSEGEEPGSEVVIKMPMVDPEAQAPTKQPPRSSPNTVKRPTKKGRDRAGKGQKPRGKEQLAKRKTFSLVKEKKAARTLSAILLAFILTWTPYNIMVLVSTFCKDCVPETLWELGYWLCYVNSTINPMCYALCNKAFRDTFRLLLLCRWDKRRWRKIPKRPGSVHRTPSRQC

[5] = target: Rod cGMP-specific 3',5'-cyclic phosphodiesterase subunit alpha (Homo sapiens, UniProt P16499); assay type: functional
Sequence of Rod cGMP-specific 3',5'-cyclic phosphodiesterase subunit alpha (P16499 whole entry): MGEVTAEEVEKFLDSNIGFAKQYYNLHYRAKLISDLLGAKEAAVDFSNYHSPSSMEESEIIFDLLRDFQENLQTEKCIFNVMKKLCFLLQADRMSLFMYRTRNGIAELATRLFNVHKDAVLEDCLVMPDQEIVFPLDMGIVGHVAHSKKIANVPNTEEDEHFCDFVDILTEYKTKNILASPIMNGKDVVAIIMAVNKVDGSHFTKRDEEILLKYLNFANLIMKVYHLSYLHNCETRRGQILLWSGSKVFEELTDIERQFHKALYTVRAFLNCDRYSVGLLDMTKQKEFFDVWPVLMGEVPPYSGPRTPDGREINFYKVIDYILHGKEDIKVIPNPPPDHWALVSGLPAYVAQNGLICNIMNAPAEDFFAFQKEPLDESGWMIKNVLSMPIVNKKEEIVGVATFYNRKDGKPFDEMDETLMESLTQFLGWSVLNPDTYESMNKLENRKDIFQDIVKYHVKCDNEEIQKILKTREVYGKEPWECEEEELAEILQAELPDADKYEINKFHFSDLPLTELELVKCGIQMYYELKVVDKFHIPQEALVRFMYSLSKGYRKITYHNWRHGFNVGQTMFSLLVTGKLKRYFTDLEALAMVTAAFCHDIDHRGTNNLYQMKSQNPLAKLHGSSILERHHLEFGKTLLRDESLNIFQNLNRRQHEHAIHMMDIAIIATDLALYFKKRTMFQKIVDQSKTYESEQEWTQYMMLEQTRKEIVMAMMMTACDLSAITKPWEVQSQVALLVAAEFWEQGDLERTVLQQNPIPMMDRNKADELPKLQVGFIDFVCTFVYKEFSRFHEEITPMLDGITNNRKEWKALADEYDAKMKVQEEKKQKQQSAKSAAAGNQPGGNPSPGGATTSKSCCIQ

Mu-type opioid receptor = Mu-type opioid receptor (Homo sapiens, UniProt P35372)
Sequence of Mu-type opioid receptor (P35372 whole entry): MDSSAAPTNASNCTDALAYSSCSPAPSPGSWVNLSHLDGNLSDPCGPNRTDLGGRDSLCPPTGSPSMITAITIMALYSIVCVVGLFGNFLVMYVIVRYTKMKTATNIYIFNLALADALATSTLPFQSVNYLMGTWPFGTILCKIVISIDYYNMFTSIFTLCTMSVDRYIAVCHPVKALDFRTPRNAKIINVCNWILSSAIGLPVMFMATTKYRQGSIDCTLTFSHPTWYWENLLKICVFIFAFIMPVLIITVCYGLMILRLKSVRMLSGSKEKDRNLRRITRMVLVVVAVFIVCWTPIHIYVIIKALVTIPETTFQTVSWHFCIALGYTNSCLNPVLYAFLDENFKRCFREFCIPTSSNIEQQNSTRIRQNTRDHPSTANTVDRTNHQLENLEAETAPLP

[6] = target: T4, Alpha-1A adrenergic receptor (Homo sapiens, UniProt P35348)
T4 sequence (P35348 whole entry): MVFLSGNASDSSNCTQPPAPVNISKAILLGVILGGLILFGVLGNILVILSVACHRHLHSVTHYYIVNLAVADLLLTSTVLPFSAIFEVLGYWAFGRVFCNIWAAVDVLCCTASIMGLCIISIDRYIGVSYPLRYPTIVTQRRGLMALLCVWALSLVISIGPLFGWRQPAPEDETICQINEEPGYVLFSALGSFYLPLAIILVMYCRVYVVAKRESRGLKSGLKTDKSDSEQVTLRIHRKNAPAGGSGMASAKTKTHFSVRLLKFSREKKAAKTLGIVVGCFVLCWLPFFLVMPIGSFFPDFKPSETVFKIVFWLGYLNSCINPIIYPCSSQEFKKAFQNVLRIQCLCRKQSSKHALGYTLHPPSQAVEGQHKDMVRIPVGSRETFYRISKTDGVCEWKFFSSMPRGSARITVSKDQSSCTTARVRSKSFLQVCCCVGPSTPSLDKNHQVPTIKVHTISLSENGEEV
Further: assay procedure not described here.

Sequence of Gamma-aminobutyric acid receptor subunit alpha-1 (P62813 whole entry): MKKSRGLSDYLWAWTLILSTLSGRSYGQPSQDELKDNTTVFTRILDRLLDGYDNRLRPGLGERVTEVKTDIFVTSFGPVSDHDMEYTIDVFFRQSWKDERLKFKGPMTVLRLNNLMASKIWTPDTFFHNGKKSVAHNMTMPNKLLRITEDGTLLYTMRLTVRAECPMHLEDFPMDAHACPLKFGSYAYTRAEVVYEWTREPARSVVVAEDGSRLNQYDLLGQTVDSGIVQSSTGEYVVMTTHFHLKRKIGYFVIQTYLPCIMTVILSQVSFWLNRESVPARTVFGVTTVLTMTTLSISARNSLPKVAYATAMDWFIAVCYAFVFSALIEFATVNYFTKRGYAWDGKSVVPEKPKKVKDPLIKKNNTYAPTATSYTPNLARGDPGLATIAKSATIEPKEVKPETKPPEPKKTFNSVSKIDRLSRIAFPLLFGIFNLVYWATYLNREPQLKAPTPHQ
Sequence of Voltage-dependent L-type calcium channel subunit alpha-1C (Q13936 whole entry): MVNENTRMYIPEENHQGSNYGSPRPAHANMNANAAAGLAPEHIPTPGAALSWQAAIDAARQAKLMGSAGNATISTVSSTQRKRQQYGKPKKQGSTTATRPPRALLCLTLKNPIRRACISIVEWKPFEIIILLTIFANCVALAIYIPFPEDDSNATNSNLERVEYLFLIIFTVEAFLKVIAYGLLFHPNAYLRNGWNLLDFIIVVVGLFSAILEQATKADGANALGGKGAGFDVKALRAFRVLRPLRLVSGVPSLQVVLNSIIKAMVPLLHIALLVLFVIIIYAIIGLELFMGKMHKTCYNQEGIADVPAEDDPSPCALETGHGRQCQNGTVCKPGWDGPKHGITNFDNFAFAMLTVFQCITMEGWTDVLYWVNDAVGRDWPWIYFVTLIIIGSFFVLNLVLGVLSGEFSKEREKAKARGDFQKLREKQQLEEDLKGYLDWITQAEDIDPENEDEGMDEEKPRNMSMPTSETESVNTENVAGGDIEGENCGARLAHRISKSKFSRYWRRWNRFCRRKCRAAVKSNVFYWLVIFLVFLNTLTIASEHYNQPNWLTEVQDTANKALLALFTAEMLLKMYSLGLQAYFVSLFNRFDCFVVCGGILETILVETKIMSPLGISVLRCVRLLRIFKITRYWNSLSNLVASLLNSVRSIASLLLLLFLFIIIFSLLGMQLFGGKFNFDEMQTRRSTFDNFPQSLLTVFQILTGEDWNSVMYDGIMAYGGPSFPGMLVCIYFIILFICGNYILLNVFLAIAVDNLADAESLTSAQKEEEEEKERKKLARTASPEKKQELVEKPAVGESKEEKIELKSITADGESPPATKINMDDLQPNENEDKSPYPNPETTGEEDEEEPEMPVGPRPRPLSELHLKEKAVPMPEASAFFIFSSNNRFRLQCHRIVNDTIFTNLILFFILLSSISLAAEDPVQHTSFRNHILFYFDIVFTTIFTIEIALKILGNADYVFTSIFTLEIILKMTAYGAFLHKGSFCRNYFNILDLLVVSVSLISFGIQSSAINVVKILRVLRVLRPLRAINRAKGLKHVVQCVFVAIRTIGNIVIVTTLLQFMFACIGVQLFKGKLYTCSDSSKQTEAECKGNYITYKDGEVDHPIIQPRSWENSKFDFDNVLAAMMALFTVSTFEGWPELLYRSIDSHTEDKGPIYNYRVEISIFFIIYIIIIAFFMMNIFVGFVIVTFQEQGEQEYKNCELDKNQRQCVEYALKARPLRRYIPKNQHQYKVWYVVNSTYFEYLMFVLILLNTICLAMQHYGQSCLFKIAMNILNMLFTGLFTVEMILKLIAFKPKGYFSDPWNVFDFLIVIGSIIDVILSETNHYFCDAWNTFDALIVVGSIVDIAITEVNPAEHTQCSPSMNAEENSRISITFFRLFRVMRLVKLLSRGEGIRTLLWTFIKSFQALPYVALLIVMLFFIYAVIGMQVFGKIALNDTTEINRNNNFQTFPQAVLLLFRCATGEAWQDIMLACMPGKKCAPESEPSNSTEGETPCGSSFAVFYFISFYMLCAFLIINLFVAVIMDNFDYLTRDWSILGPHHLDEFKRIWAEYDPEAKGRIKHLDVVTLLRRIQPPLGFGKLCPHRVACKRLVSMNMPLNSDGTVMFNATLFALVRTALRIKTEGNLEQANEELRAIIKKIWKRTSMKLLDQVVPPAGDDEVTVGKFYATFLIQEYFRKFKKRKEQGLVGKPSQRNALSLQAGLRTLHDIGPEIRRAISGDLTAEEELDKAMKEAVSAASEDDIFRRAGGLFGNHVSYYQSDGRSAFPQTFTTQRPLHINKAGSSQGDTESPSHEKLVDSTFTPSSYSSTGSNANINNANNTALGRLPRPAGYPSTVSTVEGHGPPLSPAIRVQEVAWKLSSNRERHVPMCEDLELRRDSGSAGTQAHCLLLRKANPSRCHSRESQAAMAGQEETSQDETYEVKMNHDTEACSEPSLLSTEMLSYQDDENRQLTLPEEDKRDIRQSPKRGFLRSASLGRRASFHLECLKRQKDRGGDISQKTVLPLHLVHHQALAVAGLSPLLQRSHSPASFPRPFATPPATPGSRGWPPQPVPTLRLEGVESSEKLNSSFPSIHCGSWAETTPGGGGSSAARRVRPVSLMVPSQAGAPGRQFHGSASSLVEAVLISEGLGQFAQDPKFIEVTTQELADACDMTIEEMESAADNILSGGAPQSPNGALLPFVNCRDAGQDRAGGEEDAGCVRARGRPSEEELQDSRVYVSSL

## N#Cc1ccccc1-c1cc(-c2ccccn2)cn(-c2ccccc2)c1=O
[1]
  AC50: > 30 µM

## NCCCC(O)(P(=O)(O)O)P(=O)(O)O [ALENDRONIC ACID]
[2]
  AC50: > 30 µM
[3]
  AC50: > 30 µM
Progesterone receptor
  AC50: > 30 µM
Adenosine receptor A1
  AC50: > 30 µM

## O=C(CCCN1CCC(n2c(O)nc3ccccc32)CC1)c1ccc(F)cc1 [BENPERIDOL]
D(1A) dopamine receptor
  AC50: 7.5 µM

## CCN(CC)C(=O)C1CN2CCc3cc(OC)c(OC)cc3C2CC1OC(C)=O (configuration not stated) [BENZQUINAMIDE]
[4]
  AC50: > 30 µM

## CC(C)(C)NCC(O)c1cc(Cl)c(N)c(Cl)c1 (configuration not stated) [CLENBUTEROL]
D(1A) dopamine receptor
  AC50: > 30 µM

## COC(=O)N[C@@H](C)CNc1nccc(-c2cn(C(C)C)nc2-c2cc(Cl)cc(NS(C)(=O)=O)c2F)n1 [ENCORAFENIB]
[1]
  AC50: > 30 µM

## COC1=C(OC)C(=O)C(CCCCCCCCCCO)=C(C)C1=O [IDEBENONE]
[5]
  AC50: > 10 µM

## O=C1CN=C(c2ccccc2)c2cc(Cl)ccc2N1 [NORDAZEPAM]
[5]
  AC50: > 10 µM

## CC(CCc1ccccc1)NC(C)C(O)c1ccc(O)cc1 (configuration not stated) [NYLIDRIN]
[5]
  AC50: > 10 µM

## O=C1Nc2ccc(Cl)cc2C(c2ccccc2)=NC1O (configuration not stated) [OXAZEPAM]
[5]
  AC50: > 10 µM

## C[n+]1ccccc1/C=N/O [PRALIDOXIME]
[2]
  AC50: > 30 µM
Mu-type opioid receptor
  AC50: > 30 µM
[6]
  AC50: > 30 µM
[3]
  AC50: > 30 µM
Progesterone receptor
  AC50: > 30 µM
Adenosine receptor A1
  AC50: > 30 µM

## CCCOC(C(=O)OC1CCN(C)CC1)(c1ccccc1)c1ccccc1 [PROPIVERINE]
[4]
  AC50: 0.59 µM

## N#C[C@@H]1CCCN1C(=O)CNC12CC3CC(CC(O)(C3)C1)C2 [VILDAGLIPTIN]
[5]
  AC50: > 10 µM

## COLISTIN
[2]
  AC50: > 30 µM
Mu-type opioid receptor
  AC50: > 30 µM
[6]
  AC50: > 30 µM
[3]
  AC50: > 30 µM
Progesterone receptor
  AC50: > 30 µM
Adenosine receptor A1
  AC50: > 30 µM
